# Results from PubChem BioAssay AID1845196 (Molecular Pharmacology Branch, DTP, NCI, 2023).
# “And” between values parts separate entries of the source, which are not always exact repeats. Equal entries are not always repeated.
# System: 292921-168-R tumor spheroid viability
# Assay: Anticancer human tumor 292921-168-R patient-derived pancreatic carcinoma cell line growth inhibition
# Settings: spheroids with HUVEC and MSC; for viability, T/C: stronger effect = lower value
# In short: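 Single agents and combinations were tested on spheroids built from tumor cells plus HUVEC and hMSC, at half-log dilutions starting at or near clinical Cmax, else 10 microM; final DMSO 0.25% (v/v).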
# 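Also: spheroids exposed to compounds for 7 days.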
smiles,measurement,setting,value
Cc1sc2c(c1C)C(c1ccc(Cl)cc1)=NC(CC(=O)Nc1ccc(O)cc1)c1nnc(C)n1-2 (configuration not stated) + Cn1nnc2c(C(N)=O)ncn2c1=O,IC50,"curve of first compound, second compound 1 µM",2430 nM
same,IC50,"curve of first compound, second compound 3.16 µM",1980 nM
same,IC50,"curve of first compound, second compound 10 µM",1910 nM
same,IC50,"curve of first compound, second compound 31.6 µM",1700 nM
same,IC50,"curve of first compound, second compound 100 µM",904 nM
same,"viability, T/C","second compound 1 µM, first compound 0.00949 µM",109%
same,"viability, T/C","second compound 1 µM, first compound 0.03 µM",111%
same,"viability, T/C","second compound 1 µM, first compound 0.0949 µM",117%
same,"viability, T/C","second compound 1 µM, first compound 0.3 µM",99.9%
same,"viability, T/C","second compound 1 µM, first compound 0.949 µM",74.6%
same,"viability, T/C","second compound 1 µM, first compound 3 µM",44.5%
same,"viability, T/C","second compound 3.16 µM, first compound 0.00949 µM",109%
same,"viability, T/C","second compound 3.16 µM, first compound 0.03 µM",117%
same,"viability, T/C","second compound 3.16 µM, first compound 0.0949 µM",113%
same,"viability, T/C","second compound 3.16 µM, first compound 0.3 µM",111%
same,"viability, T/C","second compound 3.16 µM, first compound 0.949 µM",68.9%
same,"viability, T/C","second compound 3.16 µM, first compound 3 µM",39.2%
same,"viability, T/C","second compound 10 µM, first compound 0.00949 µM",112%
same,"viability, T/C","second compound 10 µM, first compound 0.03 µM",115%
same,"viability, T/C","second compound 10 µM, first compound 0.0949 µM",111%
same,"viability, T/C","second compound 10 µM, first compound 0.3 µM",89%
same,"viability, T/C","second compound 10 µM, first compound 0.949 µM",77.3%
same,"viability, T/C","second compound 10 µM, first compound 3 µM",33.9%
same,"viability, T/C","second compound 31.6 µM, first compound 0.00949 µM",107%
same,"viability, T/C","second compound 31.6 µM, first compound 0.03 µM",114%
same,"viability, T/C","second compound 31.6 µM, first compound 0.0949 µM",109%
same,"viability, T/C","second compound 31.6 µM, first compound 0.3 µM",102%
same,"viability, T/C","second compound 31.6 µM, first compound 0.949 µM",67.4%
same,"viability, T/C","second compound 31.6 µM, first compound 3 µM",32.9%
same,"viability, T/C","second compound 100 µM, first compound 0.00949 µM",90.3%
same,"viability, T/C","second compound 100 µM, first compound 0.03 µM",106%
same,"viability, T/C","second compound 100 µM, first compound 0.0949 µM",95.3%
same,"viability, T/C","second compound 100 µM, first compound 0.3 µM",89.1%
same,"viability, T/C","second compound 100 µM, first compound 0.949 µM",48.3%
same,"viability, T/C","second compound 100 µM, first compound 3 µM",16.1%
Cc1cc(C)c(CNC(=O)c2cc(-c3ccc(CN4CCOCC4)cc3)cc3c2cnn3C2CCCC2)c(=O)[nH]1,"viability, T/C",compound 0.0316 µM,103% and 102% and 97.1%
same,"viability, T/C",compound 0.1 µM,101% and 104% and 88.9%
same,"viability, T/C",compound 0.316 µM,110% and 97.8% and 101%
same,"viability, T/C",compound 1 µM,106% and 103% and 98.5%
same,"viability, T/C",compound 3.16 µM,102% and 88.8% and 103%
same,"viability, T/C",compound 10 µM,75.6% and 68.8% and 63.9%
same,IC50,curve of compound,> 10000 nM
O=C(c1cc(Cc2n[nH]c(=O)c3ccccc23)ccc1F)N1CCN(C(=O)C2CC2)CC1 + COc1cc2c(cc1O)CCNC21CSC2c3c(OC(C)=O)c(C)c4c(c3C(COC1=O)N1C(O)C3Cc5cc(C)c(OC)c(O)c5C(C21)N3C)OCO4,IC50,"curve of first compound, second compound 30 pM",8260 nM
same,IC50,"curve of first compound, second compound 94.9 pM",7070 nM
same,IC50,"curve of first compound, second compound 0.0003 µM",< 94.9 nM
same,IC50,"curve of first compound, second compound 0.000949 µM",< 94.9 nM
same,IC50,"curve of first compound, second compound 0.003 µM",< 94.9 nM
same,"viability, T/C","second compound 30 pM, first compound 0.0949 µM",99.4%
same,"viability, T/C","second compound 30 pM, first compound 0.3 µM",103%
same,"viability, T/C","second compound 30 pM, first compound 0.949 µM",96.6%
same,"viability, T/C","second compound 30 pM, first compound 3 µM",91.9%
same,"viability, T/C","second compound 30 pM, first compound 9.49 µM",44.2%
same,"viability, T/C","second compound 30 pM, first compound 30 µM",21.8%
same,"viability, T/C","second compound 94.9 pM, first compound 0.0949 µM",94.8%
same,"viability, T/C","second compound 94.9 pM, first compound 0.3 µM",94%
same,"viability, T/C","second compound 94.9 pM, first compound 0.949 µM",88%
same,"viability, T/C","second compound 94.9 pM, first compound 3 µM",82.2%
same,"viability, T/C","second compound 94.9 pM, first compound 9.49 µM",38.9%
same,"viability, T/C","second compound 94.9 pM, first compound 30 µM",22.4%
same,"viability, T/C","second compound 0.0003 µM, first compound 0.0949 µM",48%
same,"viability, T/C","second compound 0.0003 µM, first compound 0.3 µM",41.3%
same,"viability, T/C","second compound 0.0003 µM, first compound 0.949 µM",38.6%
same,"viability, T/C","second compound 0.0003 µM, first compound 3 µM",34.3%
same,"viability, T/C","second compound 0.0003 µM, first compound 9.49 µM",10.7%
same,"viability, T/C","second compound 0.0003 µM, first compound 30 µM",13.2%
same,"viability, T/C","second compound 0.000949 µM, first compound 0.0949 µM",3.75%
same,"viability, T/C","second compound 0.000949 µM, first compound 0.3 µM",4.31%
same,"viability, T/C","second compound 0.000949 µM, first compound 0.949 µM",3.14%
same,"viability, T/C","second compound 0.000949 µM, first compound 3 µM",3.26%
same,"viability, T/C","second compound 0.000949 µM, first compound 9.49 µM",1.19%
same,"viability, T/C","second compound 0.000949 µM, first compound 30 µM",0.39%
same,"viability, T/C","second compound 0.003 µM, first compound 0.0949 µM",0.15%
same,"viability, T/C","second compound 0.003 µM, first compound 0.3 µM",0.13%
same,"viability, T/C","second compound 0.003 µM, first compound 0.949 µM",0.13%
same,"viability, T/C","second compound 0.003 µM, first compound 3 µM",0.23%
same,"viability, T/C","second compound 0.003 µM, first compound 9.49 µM",0.41%
same,"viability, T/C","second compound 0.003 µM, first compound 30 µM",1.31%
